According to ChEMBL document CHEMBL1201862, “PubChem BioAssay data set” (2004):
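Method: 48-hour compound exposure of cells in 96-well plates, five concentrations, linear interpolation of endpoints. GI50 marks 50% less growth.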 Calls of active or inactive are those of the source. No stated cut-off is given here; in the data, active = GI50 up to about 1.1 µM and inactive = higher.

Tests used:
Assay in all cases: NCI-60 cell line screen, 48 h
[1] = system: 786-0
[2] = system: A498
[3] = system: A549
[4] = system: ACHN
[5] = system: BT-549
[6] = system: CAKI-1
[7] = system: CCRF-CEM
[8] = system: COLO 205
[9] = system: DU-145
[10] = system: EKVX
[11] = system: HCC 2998
[12] = system: HCT-116
[13] = system: HCT-15
[14] = system: HL-60
[15] = system: HOP-62
[16] = system: HOP-92
[17] = system: HT-29
[18] = system: Hs-578T
[19] = system: IGROV-1
[20] = system: K562
[21] = system: KM12
[22] = system: LOX IMVI
[23] = system: M14
[24] = system: MCF7
[25] = system: MDA-MB-231
[26] = system: MDA-MB-435
[27] = system: MDA-N
[28] = system: MOLT-4
[29] = system: Malme-3M
[30] = system: NCI-H226
[31] = system: NCI-H23
[32] = system: NCI-H460
[33] = system: NCI-H522
[34] = system: NCI/ADR-RES
[35] = system: OVCAR-3
[36] = system: OVCAR-4
[37] = system: OVCAR-5
[38] = system: OVCAR-8
[39] = system: PC-3
[40] = system: RPMI-8226
[41] = system: RXF 393
[42] = system: SF-268
[43] = system: SF-295
[44] = system: SF-539
[45] = system: SK-MEL-28
[46] = system: SK-MEL-2
[47] = system: SK-MEL-5
[48] = system: SK-OV-3
[49] = system: SN12C
[50] = system: SNB-19
[51] = system: SNB-75
[52] = system: SR
[53] = system: SW-620
[54] = system: T47D
[55] = system: TK-10
[56] = system: U-251
[57] = system: UACC-257
[58] = system: UACC-62
[59] = system: UO-31

In the case of `C[Si](C)(C)C#CCO[Si](C)(C)C`, the GI50 [1] is reported as 32.7 µM (inactive), the GI50 [2] is reported as > 100 µM (inactive) and the GI50 [3] is reported as > 100 µM (inactive). For the same compound, the GI50 [4] was > 100 µM (inactive), the GI50 [5] was 39.1 µM (inactive) and the GI50 [6] was > 78.7 µM (inactive). For the same compound, the GI50 [7] was 5.69 µM (inactive), the GI50 [8] was > 54.3 µM (inactive) and the GI50 [9] was > 100 µM (inactive). For the same compound, the GI50 [10] was 97.9 µM (inactive), the GI50 [11] was > 100 µM (inactive) and the GI50 [12] was 65 µM (inactive). The GI50 [13] was > 79.8 µM, the GI50 [14] was 31.5 µM (inactive) and the GI50 [15] was > 100 µM (inactive). The GI50 [16] was 18.2 µM (inactive), the GI50 [17] was 32.9 µM (inactive) and the GI50 [18] was > 100 µM (inactive). For the same compound, the GI50 [19] was 16.1 µM (inactive), the GI50 [20] was 30.9 µM (inactive) and the GI50 [21] was > 50.4 µM (inactive). For the same compound, the GI50 [22] was 7.03 µM (inactive), the GI50 [23] was > 74.8 µM (inactive) and the GI50 [24] was > 74.8 µM (inactive). For the same compound, the GI50 [25] was > 50.2 µM (inactive), the GI50 [26] was > 61.4 µM (inactive) and the GI50 [27] was 49.8 µM (inactive). The GI50 [28] was 22.3 µM (inactive), the GI50 [29] was > 100 µM (inactive) and the GI50 [30] was > 100 µM (inactive). The GI50 [31] was 68.7 µM (inactive), the GI50 [32] was > 100 µM (inactive) and the GI50 [33] was 15.9 µM (inactive). The GI50 [34] was > 100 µM (inactive), the GI50 [35] was > 94.2 µM (inactive) and the GI50 [36] was > 100 µM (inactive). For the same compound, the GI50 [37] was > 100 µM (inactive), the GI50 [38] was 36.3 µM (inactive) and the GI50 [39] was > 100 µM (inactive). The GI50 [40] was 21 µM (inactive), the GI50 [41] was > 100 µM (inactive) and the GI50 [42] was 34.2 µM (inactive). For the same compound, the GI50 [43] was > 100 µM (inactive), the GI50 [44] was 21.9 µM (inactive) and the GI50 [45] was > 75.3 µM (inactive). For the same compound, the GI50 [46] was > 54.2 µM (inactive), the GI50 [47] was > 100 µM (inactive) and the GI50 [48] was > 100 µM (inactive). For the same compound, the GI50 [49] was > 100 µM (inactive), the GI50 [50] was > 100 µM (inactive) and the GI50 [51] was 47.2 µM (inactive). The GI50 [52] was 34.1 µM (inactive), the GI50 [53] was 37.8 µM (inactive) and the GI50 [54] was > 70.6 µM (inactive). The GI50 [55] was > 100 µM (inactive), the GI50 [56] was > 100 µM (inactive) and the GI50 [57] was > 100 µM (inactive). For the same compound, the GI50 [58] was 56.5 µM (inactive) and the GI50 [59] was > 100 µM (inactive).
`COc1ccc(N2N=NN(C(C)C)/C2=C(/Cl)c2nnnn2-c2ccc(OC)cc2)cc1` was tested, and the GI50 [1] was 2.76 µM (inactive), the GI50 [2] was 16 µM (inactive) and the GI50 [3] was 17.8 µM (inactive). For the same compound, the GI50 [4] was 16.6 µM (inactive), the GI50 [5] was 15.6 µM (inactive) and the GI50 [6] was 1.75 µM (inactive). For the same compound, the GI50 [7] was 1.83 µM (inactive), the GI50 [8] was 3.72 µM (inactive) and the GI50 [9] was 8.11 µM (inactive). The GI50 [10] was 18.2 µM (inactive), the GI50 [11] was 19.5 µM (inactive) and the GI50 [12] was 5 µM (inactive). For the same compound, the GI50 [13] was 15.8 µM, the GI50 [14] was 2.45 µM (inactive) and the GI50 [15] was 21 µM (inactive). The GI50 [16] was 2.25 µM (inactive), the GI50 [17] was 10.2 µM (inactive) and the GI50 [18] was 22.1 µM (inactive). For the same compound, the GI50 [19] was 14.9 µM (inactive), the GI50 [20] was 3.9 µM (inactive) and the GI50 [21] was 17.1 µM (inactive). For the same compound, the GI50 [22] was 2 µM (inactive), the GI50 [23] was 8.81 µM (inactive) and the GI50 [24] was 9.46 µM (inactive). The GI50 [25] was 9.14 µM (inactive), the GI50 [26] was 12.6 µM (inactive) and the GI50 [27] was 13.6 µM (inactive). For the same compound, the GI50 [28] was 4.61 µM (inactive), the GI50 [29] was 11.4 µM (inactive) and the GI50 [30] was 20.2 µM (inactive). For the same compound, the GI50 [31] was 16.8 µM (inactive), the GI50 [32] was 18.7 µM (inactive) and the GI50 [33] was 2.76 µM (inactive). The GI50 [34] was 27.7 µM (inactive), the GI50 [35] was 9.62 µM (inactive) and the GI50 [36] was 5.01 µM (inactive). The GI50 [37] was 13.6 µM (inactive), the GI50 [38] was 6.11 µM (inactive) and the GI50 [39] was 14.6 µM (inactive). The GI50 [40] was 8.99 µM (inactive), the GI50 [41] was 13.8 µM (inactive) and the GI50 [42] was 16.2 µM (inactive). For the same compound, the GI50 [43] was 16.6 µM (inactive), the GI50 [44] was 18.8 µM (inactive) and the GI50 [45] was 15.5 µM (inactive). The GI50 [46] was 13.4 µM (inactive), the GI50 [47] was 15.2 µM (inactive) and the GI50 [48] was 18.2 µM (inactive). For the same compound, the GI50 [49] was 14.3 µM (inactive), the GI50 [50] was 16 µM (inactive) and the GI50 [51] was 13 µM (inactive). The GI50 [52] was 2.98 µM (inactive), the GI50 [53] was 1.82 µM (inactive) and the GI50 [54] was 4.55 µM (inactive). The GI50 [55] was 16.2 µM (inactive), the GI50 [56] was 17.5 µM (inactive) and the GI50 [57] was 15.3 µM (inactive). The GI50 [58] was 14.4 µM (inactive) and the GI50 [59] was 5.97 µM (inactive).
